{"source": "patent US9284272B2", "about": "“Inhibitors of histone methyltransferase G9a” (AbbVie Inc., priority 2014, dated 2016)", "key": {"[1]": {"system": "H3K9me2", "test": "Cellular immunostaining (In-Cell Western), H3K9Me2 antibody immunofluorescence in PC3 cells", "assay_type": "cell-based, human", "details": "for H3K9me2 % inhibition, single well of triplicate / inhibition at 0.03 µM / inhibition at 0.1 µM / inhibition at 0.3 µM / inhibition at 1 µM / inhibition at 3 µM: 72 hours; for inhibition at 0.03 µM / inhibition at 0.1 µM / inhibition at 0.3 µM / inhibition at 1 µM / inhibition at 3 µM: Homo sapiens, PC-3, 72 h", "protocol": "For comparison, the known G9a inhibitor UNC0638 (see structure in FIG. 1) was evaluated in this study concurrently.\nHuman PC3 cells (ATCC, Manassas, Va.) were grown in RPMI+10% Fetal Bovine Serum and plated at 5,000 cells per well in a 96-well plate. The following day compounds and DMSO controls were added in triplicate at the indicated concentrations. Cells were fixed following incubation at 37° C. for 72 hours with 10% formaldehyde and then permeabilized with 0.1% Triton X-100. Cells were then washed with PBS and blocked with 0.1% BSA/PBS solution. Mouse anti-H3K9me2 (1:200, AbCam #1220, Cambridge, Mass.) and rabbit anti-Histone H3 (1:500, Cell Signaling Technology #4499, Danvers, Mass.) primary antibodies in 0.3% BSA were then added together to each well and incubated overnight at 4° C. The following day cells were washed in PBS-T (PBS with 0.1% Tween) followed by addition of anti-mouse (IR800) and anti-rabbit (IR700) secondary antibodies (LI-COR Biosciences, Lincoln, Nebr.) and incubated for one hour at room temperature. Cells were then washed with PBS-T followed by PBS and liquid was removed from all wells. The plate was scanned using both the 700 nm (anti-rabbit detection) and 800 nm (anti-mouse detection) channels on the Odyssey Imaging System (LI-COR Biosciences, Lincoln, Nebr.). Data was quantified using the LI-COR imaging suite and graphed as % inhibition H3K9me2/total H3/well compared to DMSO control wells. Wells treated in triplicate were averaged for each indicated concentration and error bars represent the standard deviation (n=3)."}, "[2]": {"system": "MV4;11 cells", "test": "Combination of G9a inhibitor and ATRA on MV4;11 proliferation (CellTiter Glo)", "assay_type": "cell-based, human", "details": "0, 300 nM or 3 μM Example 7 with 0-100 nM ATRA, 5 days", "protocol": "Cellular proliferation was determined by CellTiter Glo assay."}, "[3]": {"system": "HL-60 acute promyelocytic cells", "test": "Differentiation, proliferation, viability and cell cycle of HL-60 cells, 4 days", "assay_type": "cell-based", "details": "0-10 μM", "protocol": "Cells were then fixed, stained with an anti-CD11b antibody and analyzed by flow cytometry (FIG. 6A).\nCell cycle analysis (PI staining) of HL-60 cells following the 4 day treatment at the indicated concentrations (i.e., 0 μM, 0.1 μM, 0.3 μM, 1 μM, 3 μM, and 10 μM) was also performed (FIG. 6C)."}, "[4]": {"test": "PK/PD study, plasma and tissue concentrations", "assay_type": "in vivo, SCID/bg mice", "details": "30 mg/kg/day osmotic mini-pump, samples at 2, 7, 14 days", "from_the_text": "Specifically, subcutaneous MV4;11 xenografts were implanted in SCID/bg mice and allowed to grow to 200 mm^3. […] In particular, by day 14, dimethylation of lysine 9 of histone H3 in the tumor tissue was reduced by 46 percent as compared to the vehicle."}, "[5]": {"system": "subcutaneous MV4;11 xenografts", "test": "In vivo efficacy study, MV4;11 xenograft tumor volume", "set-up": "species or system SCID/bg mice", "details": "30 mg/kg/day osmotic mini-pump for 14 days, compared to vehicle", "protocol": "The efficacy of the compound of Example 7 was further examined by monitoring tumor volume during treatment with the compound of Example 7. Subcutaneous MV4;11 xenografts were implanted in SCID/bg mice and allowed to grow to 200 mm^3. […] Tumors were measured at the indicated time points (i.e., from 20 days to 55 days post-inoculation of the mice with the MV4;11 cells) and tumor growth was plotted as a function of time (FIG. 9)."}, "[6]": {"system": "H3K9me2", "test": "H3K9me2 levels by AlphaLISA in HT1080 cells", "assay_type": "cell-based", "details": "48 h, 0-1,000 nM"}, "[7]": {"test": "Cytotoxicity, CellTiter Glo", "assay_type": "cell-based", "details": "human, MHH-65-1 cells, 7-day proliferation, neural crest derived lines"}, "[8]": {"test": "Cytotoxicity, CellTiter Glo", "assay_type": "cell-based", "details": "human, G-401 cells, 7-day proliferation, neural crest derived lines"}, "[9]": {"test": "in vitro", "assay_type": "cell-based", "details": "PH-1; 7-day proliferation, neural crest derived lines; read-out: IC50 cytotoxicity"}, "[10]": {"test": "Cytotoxicity, CellTiter Glo", "assay_type": "cell-based", "details": "A-201 cells, 12-day proliferation, neural crest derived lines"}, "[11]": {"test": "Cytotoxicity, CellTiter Glo", "assay_type": "cell-based", "details": "human, THP-1 cells, 5-day proliferation"}, "[12]": {"test": "Cytotoxicity, CellTiter Glo", "assay_type": "cell-based", "details": "human, RS4;11 cells, 5-day proliferation"}, "[13]": {"test": "Cytotoxicity, CellTiter Glo", "assay_type": "cell-based", "details": "human, RPMI8226 cells, 5-day proliferation"}, "[14]": {"test": "Cytotoxicity, CellTiter Glo", "assay_type": "cell-based", "details": "human, L-363 cells, 5-day proliferation"}, "[15]": {"test": "Cytotoxicity, CellTiter Glo", "assay_type": "cell-based", "details": "human, KMS12 cells, 5-day proliferation"}, "[16]": {"test": "Cytotoxicity, CellTiter Glo", "assay_type": "cell-based", "details": "human, KMS11 cells, 5-day proliferation"}, "[17]": {"test": "Cytotoxicity, CellTiter Glo", "assay_type": "cell-based", "details": "human, Kasume-1 cells, 5-day proliferation"}, "[18]": {"test": "Cytotoxicity, CellTiter Glo", "assay_type": "cell-based", "details": "human, HL-60 cells, 5-day proliferation"}, "[19]": {"test": "Cytotoxicity, CellTiter Glo", "assay_type": "cell-based", "details": "human, K562 cells, 5-day proliferation"}, "[20]": {"test": "Cytotoxicity, CellTiter Glo", "assay_type": "cell-based", "details": "human, 22RV1 cells, 5-day proliferation"}, "[21]": {"test": "Cytotoxicity, CellTiter Glo", "assay_type": "cell-based", "details": "human, Calu6 cells, 5-day proliferation"}, "[22]": {"test": "Cytotoxicity, CellTiter Glo", "assay_type": "cell-based", "details": "human, LN229 cells, 5-day proliferation"}, "[23]": {"test": "Cytotoxicity, CellTiter Glo", "assay_type": "cell-based", "details": "human, LNCap cells, 5-day proliferation"}, "[24]": {"test": "Cytotoxicity, CellTiter Glo", "assay_type": "cell-based", "details": "human, SKBR3 cells, 5-day proliferation"}}, "note": "“And” between values parts separate entries of the source, which are not always exact repeats. Identical values can stand only once. Like-named read-outs stand apart in the source and are kept apart here.", "data": [{"smiles": "COc1cc2c(cc1OCCCN1CCCC1)N=C(N)C21CCC1", "note": "[Example 7, 5′-methoxy-6′-(3-(pyrrolidin-1-yl)propoxy)spiro[cyclobutane-1,3′-indol]-2′-amine]", "values": [{"measurement": "reduction of cellular levels of H3K9Me2", "setting": "[1]; 3 μM", "result": "~50", "unit": "%"}, {"measurement": "H3K9me2 % inhibition, single well of triplicate", "setting": "[1]; 0.03 uM", "result": "15.08% and 10.18%"}, {"measurement": "H3K9me2 % inhibition, single well of triplicate", "setting": "[1]; 0.1 uM", "result": "24.63% and 27.83%"}, {"measurement": "H3K9me2 % inhibition, single well of triplicate", "setting": "[1]; 0.3 uM", "result": "34.47% and 40.35%"}, {"measurement": "H3K9me2 % inhibition, single well of triplicate", "setting": "[1]; 1 uM", "result": "43.83% and 45.11%"}, {"measurement": "H3K9me2 % inhibition, single well of triplicate", "setting": "[1]; 3 uM", "result": "47.77% and 48.92%"}, {"measurement": "inhibition at 0.03 µM", "setting": "[1]; 0.03 uM, n=3, read-out: H3K9me2 % inhibition, average", "result": 12, "unit": "%"}, {"measurement": "inhibition at 0.03 µM", "setting": "[1]; 0.03 uM, read-out: H3K9me2 % inhibition, single well of triplicate", "result": 10.8, "unit": "%"}, {"measurement": "inhibition at 0.1 µM", "setting": "[1]; 0.1 uM, n=3, read-out: H3K9me2 % inhibition, average", "result": 24.3, "unit": "%"}, {"measurement": "inhibition at 0.1 µM", "setting": "[1]; 0.1 uM, read-out: H3K9me2 % inhibition, single well of triplicate", "result": 20.6, "unit": "%"}, {"measurement": "inhibition at 0.3 µM", "setting": "[1]; 0.3 uM, n=3, read-out: H3K9me2 % inhibition, average", "result": 37.1, "unit": "%"}, {"measurement": "inhibition at 0.3 µM", "setting": "[1]; 0.3 uM, read-out: H3K9me2 % inhibition, single well of triplicate", "result": 36.6, "unit": "%"}, {"measurement": "inhibition at 1 µM", "setting": "[1]; 1 uM, n=3, read-out: H3K9me2 % inhibition, average", "result": 44.4, "unit": "%"}, {"measurement": "inhibition at 1 µM", "setting": "[1]; 1 uM, read-out: H3K9me2 % inhibition, single well of triplicate", "result": 44.2, "unit": "%"}, {"measurement": "inhibition at 3 µM", "setting": "[1]; 3 uM, n=3, read-out: H3K9me2 % inhibition, average", "result": 47.5, "unit": "%"}, {"measurement": "inhibition at 3 µM", "setting": "[1]; 3 uM, read-out: H3K9me2 % inhibition, single well of triplicate", "result": 45.9, "unit": "%"}, {"measurement": "levels of total histone 3, H3K27Me3, H3K36Me2, H3K4me2, H3K4me3 and H3K9me3", "setting": "[1]; similar conditions", "result": "unaltered"}, {"measurement": "cell viability as measured by total histone H3", "setting": "[1]; versus no treatment", "result": "No difference in cell viability"}, {"measurement": "MV4;11 proliferation, combination with ATRA", "setting": "[2]", "result": "additive effects on MV4;11 proliferation"}, {"measurement": "cell cycle analysis (PI staining)", "setting": "[3]", "result": "increased numbers of cells were in the G1 phase"}, {"measurement": "cell proliferation (CellTiter Glo)", "setting": "[3]", "result": "inhibited proliferation of the HL-60 cells"}, {"measurement": "cell viability (trypan blue exclusion)", "setting": "[3]", "result": "largely unaffected"}, {"measurement": "differentiation (CD11b, flow cytometry)", "setting": "[3]", "result": "induced differentiation of the HL-60 cells"}, {"measurement": "accumulation in tumor tissue (as well as liver and muscle tissue)", "setting": "[4]", "result": "significant accumulation"}, {"measurement": "tumor growth (tumor volume)", "setting": "[5]", "result": "growth inhibition of the tumors"}, {"measurement": "H3K9me2 reduction compared with UNC0638", "setting": "[6]", "result": "equivalent effects on H3K9me2 reduction"}, {"measurement": "IC50 at 7 day", "setting": "[7]", "result": "> 10", "unit": "µM"}, {"measurement": "IC50 at 7 day", "setting": "[8]", "result": "> 10", "unit": "µM"}, {"measurement": "IC50 at 7 day", "setting": "[9]", "result": "> 10", "unit": "µM"}, {"measurement": "IC50 at 12 day", "setting": "[10]", "result": "> 10", "unit": "µM"}, {"measurement": "IC50 at 5 day", "setting": "[11]", "result": "> 10", "unit": "µM"}, {"measurement": "IC50 at 5 day", "setting": "[12]", "result": "> 10", "unit": "µM"}, {"measurement": "IC50 at 5 day", "setting": "[13]", "result": "> 10", "unit": "µM"}, {"measurement": "IC50 at 5 day", "setting": "[14]", "result": "> 10", "unit": "µM"}, {"measurement": "IC50 at 5 day", "setting": "[15]", "result": "> 10", "unit": "µM"}, {"measurement": "IC50 at 5 day", "setting": "[16]", "result": "> 10", "unit": "µM"}, {"measurement": "IC50 at 5 day", "setting": "[17]", "result": "> 10", "unit": "µM"}, {"measurement": "IC50 at 5 day", "setting": "[18]", "result": "> 10", "unit": "µM"}, {"measurement": "IC50 at 5 day", "setting": "[19]", "result": "> 10", "unit": "µM"}, {"measurement": "IC50 at 5 day", "setting": "[20]", "result": "> 10", "unit": "µM"}, {"measurement": "IC50 at 5 day", "setting": "[21]", "result": "> 10", "unit": "µM"}, {"measurement": "IC50 at 5 day", "setting": "[22]", "result": "> 10", "unit": "µM"}, {"measurement": "IC50 at 5 day", "setting": "[23]", "result": "> 10", "unit": "µM"}, {"measurement": "IC50 at 5 day", "setting": "[24]", "result": "> 10", "unit": "µM"}]}]}
